In patent US20050214413A1, “Methods and compositions for modified release of nutritional supplements” (Mannatech, Inc., priority 2003, published 2005):
Values joined by “and” are separate entries in the source; they are usually repeats but may differ in a detail not shown here. Equal values may be shown once. “Also recorded” adds a separate entry of the source.

What was measured:
Type in all cases: biochemical
[1] = ORAC(fl) assay (fluorescein, method of Ou et al.); conditions: mixed at different ratios with quercetin, standard acetone:water
Protocol: Prior Art Method of Measuring Antioxidant Activity for Comparison. For the ORAC(fl) assay, the method of Ou et al. (Ou , B., Hampsch-Woodill, M. and Prior, R. L., J. Agric. Food Chem. 2001, 49, 4619-4626) was followed. Differences from the Ou procedure as published included the speed of the orbital shaker (Ou, 400 rpm; herein, 280 rpm), and the centrifuge speed (Ou, 14,000 rpm, 15 min; herein, 3200 rpm, 15 min and the length of the assay (Ou, 30 min; herein, 100 min). Fluorescein, sodium salt, was obtained from Aldrich (Milwaukee, Wis.). For the Ou method, a standard amount of fluorescein is added to an antioxidant product being tested, and the beginning level of fluorescence is measured. A free radical initiator is added, and the time and degree of disappearance of fluorescence are measured. Trolox®, 6-Hydroxy-2,5,7,8-tetramethylchroman-2-carboxylic Acid, is a cell-permeable, water-soluble derivative of vitamin E with potent antioxidant properties. Trolox® prevents peroxynitrite-mediated oxidative stress and apoptosis in rat thymocytes and is a synthetic antioxidant that is consistent from lot-to-lot and is used as the standard and run for comparison with each sample. A blank (control) used in calculations of the ORAC(o) value for each samples may be included in each run. Fluorescence vs. time is plotted. The blank (control) is subtracted from every curve. […]

[2] = ORAC(fl-lipo) assay
Source text: FIGS. 12A and 12B are graphs of ORAC(fl-lipo) results using mixed-tocopherol and the relative AUC results using the solvent/water/detergent solution to dissolve the sample and detect both lipohilic and lipophobic anti-oxidant capacity.

[3] = ORAC(o) assay (dissolved oxygen, oxygen radical absorbance capacity)
Protocol: Method of Measuring Antioxidant Activity. In operation, the ORAC(o) assay of the present invention was used to evaluate antioxidant compositions, combinations and the like of solutions against a target molecule (linoleic acid) with oxygen present at equilibrium with the air. A free radical initiator is added and the time it takes for oxygen to disappear is measured, yielding the rate of disappearance. Trolox® is used as the standard, and a blank is run as a control. Amount of dissolved oxygen vs. time is plotted allowing direct comparison of net areas under the curve. A detailed method is as follows: Buffers (K2HPO4 (F.W. 174.2), NaH2PO4 (FW 120.0)) were obtained from Sigma (St. Louis, Mo.). Linoleic acid 99%, Trolox® (6-hydroxy-2,5,7,8-tetramethylchroman-2-carboxylic acid) 97%, TWEEN® 20, and 2,2'-azobis (2-methylpropionamidine) dihydrochloride 97% (AAPH), were obtained from Aldrich (Milwaukee, Wis.). HPLC grade acetone was obtained from Fisher (Hampton, […] biological oxygen meter was obtained from YSI (Yellow Springs, Ohio) and used according to the manufacturer's specifications. ORAC(o) Method. The following stock solutions were used. […] Weigh 65.33 g into 500 mL of volumetric flask, and add dH20 to the mark. Concentration is 750 mM. Store 750 mM K2HPO4 stock solution in a refrigerator (2 to 8° C.) equipped with a calibrated thermometer. Target temperature is 4° C. 750 mM NaH2PO4 (FW 120.0); Weigh 45.00 g into 500 mL of volumetric flask, and add dH20 to the mark. Concentration is 750 mM. Store 750 mM NaH2PO4 stock solution in a refrigerator (2 to 8° C.) equipped with a calibrated thermometer. Target temperature is 4° C. Mix 40 ml of 750 mM K2HPO4 stock solution and 10 ml of 750 mM NaH2PO4 stock solution (4 to 1 ratio). […] Store stock solution in a refrigerator (2 to 8° C.) equipped with a calibrated thermometer. Target temperature is 4° C. Dilute mixture with dH20 (1:9) to make working solution of ORAC buffer, and measure pH. It should be 7.4. Keep covered at room temperature until ready to use. Tween Preparation. Weigh out 10 g of Tween 20, and add 90 g of deionized water. Cover and stir the mixture overnight. Tween stock solution keeps for one week. Keep on countertop. Solvent Preparation. Mix 25 mL of acetone, 25 mL of deionized water, and 25 mL of Tween 20. Use this solvent to prepare samples. Before a run is performed: the probe should be inspected for damage paying particular attention to the membrane, replace if needed. Probes should be stored with the tips in deionized water. Only one probe and one reaction chamber should be used for this assay. Run a blank and Trolox® (at 10 μg/ml or 0.03995 μmol/ml) every 8 hours. […] The sample concentration and Trolox® concentration should be the same. The dilutions are prepared by weighing out 1 mg of sample and adding 1 ml of solvent to perform the initial extraction. Shake for one hour, place 0.5 ml of the initial extraction solution in a glass scintillation vial, and then add 4.5 ml of solvent, making the first dilution. Vortex the first dilution for about 30 seconds. Its concentration is 0.1 mg/ml or 100 ppm. Take 0.5 ml of the first dilution, put it into another glass scintillation vial, and then add 4.5 ml of solvent, vortex for about 30 seconds, to yield a concentration of 0.01 mg/ml or 10 ppm. Take 0.5 ml of the vial sample and put it into another glass scintillation vial, and then add 4.5 ml of solvent, vortex for about 30 seconds, to yield a concentration of […] are placed in a 4° C. refrigerator. In a 37° C. water bath allow linoleic acid to thaw, and prepare linoleic acid solution (with minimal light) by adding 0.18 mL Tween stock solution, 0.18 mL buffer, and 0.44 mL deionized water to 70.8 mg linoleic acid. Keep solution tube wrapped in foil. Make linoleic acid solution fresh every 8 hours. To prepare the oxygen radical generator, weigh 67.8 mg of AAPH, and dissolve in 0.9 mL buffer. Keep AAPH refrigerated, it may be used for up to eight hours. Shake for 1 hour. […]

Cc1c(C)c2c(c(C)c1O)CC[C@@](C)(CCC[C@H](C)CCC[C@H](C)CCCC(C)C)O2 [α-tocopherol]
contribution to AO activity [1]: no contribution to AO activity; also recorded: no statistically significant activity could be detected
ORAC(fl-lipo) AUC, acetone:water:Tween-20 versus acetone:water [2]: large increase in the AUC

O=c1c(O)c(-c2ccc(O)c(O)c2)oc2cc(O)cc(O)c12 [quercetin]
Area Under Curve (AUC), 5 Day Mean ([3]; quercetin sample 10 μg/mL): 203.7
Area under curve, 5 Run Mean ([3]; quercetin sample 10 μg/mL): 202.9
Area Under Curve (AUC), 5 day trial for precision ([3]; quercetin sample 10 μg/mL, each day average of 3 runs): 202.7 and 212.9 and 187 and 202.9 and 213.1
Area under curve, single day trial for precision ([3]; quercetin sample 10 μg/mL, separate runs): 207.4 and 198.2 and 205 and 201.6 and 202.1
Area Under Curve ([3]; sample 1 μg/ml): 124.6
Area Under Curve ([3]; sample 10 μg/ml): 209.4
Area Under Curve ([3]; sample 100 μg/ml): 693.6
Area Under Curve ([3]; sample 500 μg/ml): 2328
Area Under Curve ([3]; sample 1000 μg/ml): 2870
